Key:
[1] = pre injection of 50 mg two minutes before an 125I-labeled conjugate, mice; cited from earlier work
[2] = test system: BeWo cells (cubilin receptor); experiment: Uptake and internalization in BeWo cells by confocal microscopy; type: cell-based; conditions: conjugates incubated with IF
[3] = biological target: cubilin (CUBN) (Homo sapiens, UniProt O60494+P27352); conditions: binds CUB domains 5-8, Ca2+ dependent; read-out: Kd of IF-B12 for cubilin; cited from earlier work
Sequence of cubilin (CUBN) (O60494 36-3623, species assumed): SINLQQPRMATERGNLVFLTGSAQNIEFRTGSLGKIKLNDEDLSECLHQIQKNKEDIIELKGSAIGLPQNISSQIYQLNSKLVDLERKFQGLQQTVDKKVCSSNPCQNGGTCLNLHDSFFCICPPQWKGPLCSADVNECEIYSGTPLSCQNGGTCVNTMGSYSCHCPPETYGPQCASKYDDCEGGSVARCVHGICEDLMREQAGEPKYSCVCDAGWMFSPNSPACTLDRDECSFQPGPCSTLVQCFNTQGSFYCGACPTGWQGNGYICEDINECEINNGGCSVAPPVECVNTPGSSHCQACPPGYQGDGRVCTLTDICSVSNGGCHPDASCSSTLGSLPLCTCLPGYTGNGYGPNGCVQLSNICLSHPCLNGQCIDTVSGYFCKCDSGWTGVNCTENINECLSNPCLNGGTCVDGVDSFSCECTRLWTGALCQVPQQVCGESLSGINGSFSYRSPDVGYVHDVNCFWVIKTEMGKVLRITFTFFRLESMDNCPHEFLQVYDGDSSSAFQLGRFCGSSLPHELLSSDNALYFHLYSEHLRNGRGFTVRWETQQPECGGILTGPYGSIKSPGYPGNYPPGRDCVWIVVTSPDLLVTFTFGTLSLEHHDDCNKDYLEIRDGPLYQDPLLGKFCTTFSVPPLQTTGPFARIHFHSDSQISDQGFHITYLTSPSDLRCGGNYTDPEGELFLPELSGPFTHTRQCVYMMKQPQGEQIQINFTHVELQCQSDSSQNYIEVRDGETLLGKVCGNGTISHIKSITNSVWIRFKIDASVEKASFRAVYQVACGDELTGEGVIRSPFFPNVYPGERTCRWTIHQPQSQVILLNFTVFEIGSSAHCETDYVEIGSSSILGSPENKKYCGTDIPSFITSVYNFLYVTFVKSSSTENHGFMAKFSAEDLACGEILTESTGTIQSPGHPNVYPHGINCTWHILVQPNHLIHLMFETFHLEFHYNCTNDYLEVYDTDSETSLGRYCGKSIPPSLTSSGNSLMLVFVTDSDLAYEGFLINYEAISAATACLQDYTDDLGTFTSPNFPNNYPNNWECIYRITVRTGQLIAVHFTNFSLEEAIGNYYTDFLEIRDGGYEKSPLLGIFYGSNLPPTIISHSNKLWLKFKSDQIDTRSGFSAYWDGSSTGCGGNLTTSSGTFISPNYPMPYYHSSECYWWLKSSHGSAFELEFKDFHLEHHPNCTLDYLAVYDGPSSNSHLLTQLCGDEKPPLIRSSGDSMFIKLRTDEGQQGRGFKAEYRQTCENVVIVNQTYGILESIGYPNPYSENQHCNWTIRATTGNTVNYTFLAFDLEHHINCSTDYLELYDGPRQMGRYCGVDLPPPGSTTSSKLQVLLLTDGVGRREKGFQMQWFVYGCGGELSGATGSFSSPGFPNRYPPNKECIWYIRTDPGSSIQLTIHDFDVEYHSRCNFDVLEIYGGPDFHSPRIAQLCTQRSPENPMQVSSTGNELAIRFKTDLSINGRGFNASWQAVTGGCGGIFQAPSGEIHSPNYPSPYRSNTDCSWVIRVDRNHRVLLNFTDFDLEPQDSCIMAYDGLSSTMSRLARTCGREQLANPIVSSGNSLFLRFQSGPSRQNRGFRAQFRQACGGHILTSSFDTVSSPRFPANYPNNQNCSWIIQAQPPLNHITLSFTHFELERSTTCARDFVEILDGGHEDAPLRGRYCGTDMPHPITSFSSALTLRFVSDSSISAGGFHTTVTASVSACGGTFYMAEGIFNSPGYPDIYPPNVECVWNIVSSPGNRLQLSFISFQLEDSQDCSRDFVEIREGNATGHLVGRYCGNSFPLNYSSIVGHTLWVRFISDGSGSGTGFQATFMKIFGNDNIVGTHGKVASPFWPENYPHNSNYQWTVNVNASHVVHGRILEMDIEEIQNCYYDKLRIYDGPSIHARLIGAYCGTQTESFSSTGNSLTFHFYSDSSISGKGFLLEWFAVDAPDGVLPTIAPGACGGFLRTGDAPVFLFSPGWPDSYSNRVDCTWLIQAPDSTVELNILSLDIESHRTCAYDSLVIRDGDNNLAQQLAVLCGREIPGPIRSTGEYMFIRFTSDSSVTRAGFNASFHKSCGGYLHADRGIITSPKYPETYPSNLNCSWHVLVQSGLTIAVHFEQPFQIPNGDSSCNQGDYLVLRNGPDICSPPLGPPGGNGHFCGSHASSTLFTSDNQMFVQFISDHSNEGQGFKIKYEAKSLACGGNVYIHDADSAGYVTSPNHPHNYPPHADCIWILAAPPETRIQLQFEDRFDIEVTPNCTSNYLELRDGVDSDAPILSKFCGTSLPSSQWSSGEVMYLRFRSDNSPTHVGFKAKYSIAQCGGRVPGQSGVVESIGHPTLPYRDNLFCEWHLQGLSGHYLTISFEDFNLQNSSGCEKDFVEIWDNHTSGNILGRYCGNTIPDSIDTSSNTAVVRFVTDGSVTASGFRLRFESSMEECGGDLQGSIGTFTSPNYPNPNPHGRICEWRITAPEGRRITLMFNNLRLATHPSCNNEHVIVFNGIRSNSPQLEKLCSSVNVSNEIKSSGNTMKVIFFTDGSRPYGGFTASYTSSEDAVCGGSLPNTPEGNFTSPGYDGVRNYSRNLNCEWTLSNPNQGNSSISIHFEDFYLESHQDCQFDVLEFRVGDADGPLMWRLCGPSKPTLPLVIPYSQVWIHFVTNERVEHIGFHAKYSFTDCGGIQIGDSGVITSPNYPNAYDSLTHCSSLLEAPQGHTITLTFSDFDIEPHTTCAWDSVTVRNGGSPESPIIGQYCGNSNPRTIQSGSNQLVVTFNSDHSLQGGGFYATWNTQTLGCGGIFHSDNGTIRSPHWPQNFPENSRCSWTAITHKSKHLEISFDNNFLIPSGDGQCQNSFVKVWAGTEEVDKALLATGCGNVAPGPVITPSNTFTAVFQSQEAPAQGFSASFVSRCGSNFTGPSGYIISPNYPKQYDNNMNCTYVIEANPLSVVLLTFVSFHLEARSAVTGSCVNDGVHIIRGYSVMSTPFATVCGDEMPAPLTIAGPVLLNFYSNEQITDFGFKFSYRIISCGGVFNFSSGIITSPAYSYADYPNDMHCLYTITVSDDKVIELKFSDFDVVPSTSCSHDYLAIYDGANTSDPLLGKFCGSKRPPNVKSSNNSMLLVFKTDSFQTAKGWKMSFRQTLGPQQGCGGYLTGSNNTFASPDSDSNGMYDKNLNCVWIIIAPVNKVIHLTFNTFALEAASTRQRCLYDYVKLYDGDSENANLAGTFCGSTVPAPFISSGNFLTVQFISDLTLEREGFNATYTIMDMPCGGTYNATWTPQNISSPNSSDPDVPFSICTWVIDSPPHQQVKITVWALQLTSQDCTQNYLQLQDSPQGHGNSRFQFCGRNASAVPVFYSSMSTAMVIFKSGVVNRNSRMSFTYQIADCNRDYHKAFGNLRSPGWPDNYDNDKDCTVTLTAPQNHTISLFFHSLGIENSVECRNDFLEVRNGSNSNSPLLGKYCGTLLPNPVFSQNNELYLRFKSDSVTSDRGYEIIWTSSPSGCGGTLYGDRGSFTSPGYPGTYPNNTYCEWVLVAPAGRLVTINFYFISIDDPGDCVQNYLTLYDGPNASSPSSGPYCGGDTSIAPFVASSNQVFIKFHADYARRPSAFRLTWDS
Sequence of cubilin (CUBN) (P27352 19-417, species assumed): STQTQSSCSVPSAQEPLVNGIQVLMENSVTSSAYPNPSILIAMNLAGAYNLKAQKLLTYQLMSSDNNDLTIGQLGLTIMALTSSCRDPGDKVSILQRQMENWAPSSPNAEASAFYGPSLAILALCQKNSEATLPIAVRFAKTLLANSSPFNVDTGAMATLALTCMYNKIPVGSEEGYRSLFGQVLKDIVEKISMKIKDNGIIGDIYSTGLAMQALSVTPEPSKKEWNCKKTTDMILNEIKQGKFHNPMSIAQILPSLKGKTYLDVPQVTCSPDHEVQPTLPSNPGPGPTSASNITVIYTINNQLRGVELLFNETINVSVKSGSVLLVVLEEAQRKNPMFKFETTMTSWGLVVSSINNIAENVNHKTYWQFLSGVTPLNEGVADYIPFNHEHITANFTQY

NCCCC[C@H](N)C(=O)O [1-lysine, L-lysine]
decrease of kidney uptake [1]: approximately 95%

IF405: intrinsic factor tagged with Alexa Fluor 405
binding, uptake or internalization in BeWo cells [2]: shows uptake

IF-B12: complex of intrinsic factor, a 50 kDa protein, bound to B12
Kd [3]: ~5 nM

Reference: US20160199500A1, “COMPOSITIONS COMPRISING VITAMIN B12 AND INTRINSIC FACTOR AND METHODS OF USE THEREOF” (Syracuse University, priority 2013, published 2016)
